The record followed here is patent publication EP2070932A1, “Pyrazolotriazines” (4SC AG, priority 2007, dated 2009).

Molecules are shown by their SMILES. Counter-ions that a name gives are not always drawn.

The test system of the first experiment is RKO p27 uninduced (proliferating). Nature of the experiment: Alamar Blue cell viability assay, anti-proliferative / cytotoxic activity on proliferating RKO cells. The conditions noted are these: Homo sapiens, RKOp27, 72 h, read-out: -log EC50 [mol/l] RKO p27 uninduced (proliferating) (converted). The format is cell-based, human. The method, then:
The anti-proliferative / cytotoxic activity of the compounds described herein can be tested on subclones of RKO human colon adenocarcinoma cells (Schmidt et al., Oncogene 19, 2423-2429; 2000) using the Alamar Blue cell viability assay (described in O'Brien et al. Eur J Biochem 267, 5421-5426, 2000). The compounds are dissolved as 10 mM solutions in DMSO and subsequently diluted in semi-logarithmic steps. DMSO dilutions are further diluted 1:100 v:v into Dulbecco's modified Eagle's medium (DMEM) containing 10% fetal calf serum to a final concentration twice as much as the final concentration in the test. RKO subclones are seeded into 96 well flat bottom plates at a density of 4000 cells per well in a volume of 50 µl per well. 24 hours after seeding the 50 µl each of the compound dilutions in DMEM medium are added into each well of the 96 well plate. Each compound dilution is tested as triplicates. Wells containing untreated control cells are filled with 50 µl DMEM medium containing 1% DMSO. The cells are then incubated with the substances for 72 hours at 37°C in a humidified atmosphere containing 5% carbon dioxide. To determine the viability of the cells, 10 µl of an Alamar Blue solution (Biosource) are added and the fluorescence is measured at an extinction of 544 nm and an emission of 590 nm. For the calculation of the cell viability the emission value from untreated cells is set as 100% viability and the emission rates of treated cells are set in relation to the values of untreated cells. Viabilities are expressed as % values. The Graphpad Prism program is used for the calculation of EC50 values for anti-proliferative / cytotoxic activity out of the obtained dose-response curves. […]
(In general: The colour change of resazurin is a common sign of viable cells or microbes.)
Turning to `Cc1ccc(C(=O)N(CCCCN)C(c2nc3c(Cl)c(C)nn3c(=O)n2Cc2ccccc2)C(C)C)cc1` (racemic) [Example 16, N-(4-Amino-n-butyl)-N-[(RS)-1-(3-benzyl-8-chloro-7-methyl-4-oxo-3,4-dihydro-pyrazolo[1,5-a][1,3,5]triazin-2-yl)-2-methyl-n-propyl]-4-methyl-benzamide hydrocloride], the EC50 was 100 to 1000 nM.

As to `Cc1nn2c(=O)n(Cc3ccccc3)c(C(C(C)C)N(CCCN)C(=O)c3ccc(Cl)c(Cl)c3)nc2c1Cl` (racemic) [Example 11, N-(3-Amino-n-propyl)-N-[(RS)-1-(3-benzyl-8-chloro-7-methyl-4-oxo-3,4-dihydro-pyrazolo[1,5-a][1,3,5]triazin-2-yl)-2-methyl-n-propyl]-3,4-dichloro-benzamide hydrocloride], the EC50 was 100 to 1000 nM.

The experiment is the same for the next values; noted with them: Homo sapiens, RKOp27; RKO colon cancer cells, without Ponasterone A, 72 hours incubation, Alamar Blue; read-out: -log EC50 [mol/l] RKO p27 uninduced (proliferating) (converted).
As for `COc1nn2c(=O)n(Cc3ccccc3)c(C(C(C)C)N(CCCN)C(=O)c3ccc(C)cc3)nc2c1Cl` (racemic) [Example 21, N-(3-Amino-n-propyl)-N-[(RS)-1-(3-benzyl-8-chloro-7-methoxy-4-oxo-3,4-dihydro-pyrazolo[1,5-a][1,3,5]triazin-2-yl)-2-methyl-n-propyl]-4-methyl-benzamide hydrochloride], the EC50 was no more than 100 nM.

As for `Cc1ccc(C(=O)N(CCCN)C(c2nc3c(Cl)c(C)nn3c(=O)n2Cc2ccccc2)C(C)C)cc1` (racemic) [Example 1, N-(3-Amino-n-propyl)-N-[(RS)-1-(3-benzyl-8-chloro-7-methyl-4-oxo-3,4-dihydro-pyrazolo[1,5-a][1,3,5]triazin-2-yl)-2-methyl-n-propyl]-4-methyl-benzamide hydrochloride], the EC50 was no more than 100 nM.

For `COc1ccc(C(=O)N(CCCN)C(c2nc3c(Cl)c(C)nn3c(=O)n2Cc2ccccc2)C(C)C)cc1` (racemic) [Example 15, N-(3-Amino-n-propyl)-N-[(RS)-1-(3-benzyl-8-chloro-7-methyl-4-oxo-3,4-dihydro-pyrazolo[1,5-a][1,3,5]triazin-2-yl)-2-methyl-n-propyl]-4-methoxy-benzamide hydrochloride], the EC50 is no more than 100 nM.

As to `Cc1ccc(C(=O)N(CCCN)C(c2nc3c(Cl)cnn3c(=O)n2Cc2ccccc2)C(C)C)cc1` (racemic) [Example 4, N-(3-Amino-n-propyl)-N-[(RS)-1-(3-benzyl-8-chloro-4-oxo-3,4-dihydro-pyrazolo[1,5-a][1,3,5]triazin-2-yl)-2-methyl-n-propyl]-4-methyl-benzamide hydrochloride], the EC50 was no more than 100 nM.

Take `Cc1nn2c(=O)n(Cc3ccccc3)c(C(C(C)C)N(CCCN)C(=O)c3ccc(Cl)cc3)nc2c1Cl` (racemic) [Example 5, N-(3-Amino-n-propyl)-N-[(RS)-1-(3-benzyl-8-chloro-7-methyl-4-oxo-3,4-dihydro-pyrazolo[1,5-a][1,3,5]triazin-2-yl)-2-methyl-n-propyl]-4-chloro-benzamide hydrochloride]: the EC50 is no more than 100 nM.

Take `Cc1ccc(C(=O)N(CCN)C(c2nc3c(Cl)c(C)nn3c(=O)n2Cc2ccccc2)C(C)C)cc1` (racemic) [Example 2, N-(2-Amino-ethyl)-N-[(RS)-1-(3-benzyl-8-chloro-7-methyl-4-oxo-3,4-dihydro-pyrazolo[1,5-a][1,3,5]triazin-2-yl)-2-methyl-n-propyl]-4-methyl-benzamide hydrochloride]: the EC50 is no more than 100 nM.

On to `Cc1ccc(C(=O)N(CCCN)C(c2nc3cc(OC(F)F)nn3c(=O)n2Cc2ccccc2)C(C)C)cc1` (racemic) [Example 10, N-(3-Amino-n-propyl)-N-{(RS)-1-[3-benzyl-7-(1,1-difluoro-methoxy)-4-oxo-3,4-dihydro-pyrazolo[1,5-a] [1,3,5]triazin-2-yl]-2-methyl-n-propyl}-4-methyl-benzamide hydrochloride], for which the EC50 was no more than 100 nM.

On to `Cc1nn2c(=O)n(Cc3ccccc3)c(C(C(C)C)N(CCCN)C(=O)c3ccc(F)cc3)nc2c1Cl` (racemic) [Example 6, N-(3-Amino-n-propyl)-N-[(RS)-1-(3-benzyl-8-chloro-7-methyl-4-oxo-3,4-dihydro-pyrazolo[1,5-a][1,3,5]triazin-2-yl)-2-methyl-n-propyl]-4-fluoro-benzamide hydrochloride], for which the EC50 was 100 to 1000 nM.

`Cc1cccc(C(=O)N(CCCN)C(c2nc3c(Cl)c(C)nn3c(=O)n2Cc2ccccc2)C(C)C)c1` (racemic) [Example 7, N-(3-Amino-n-propyl)-N-[(RS)-1-(3-benzyl-8-chloro-7-methyl-4-oxo-3,4-dihydro-pyrazolo[1,5-a][1,3,5]triazin-2-yl)-2-methyl-n-propyl]-3-methyl-benzamide hydrochloride]: the EC50 was no more than 100 nM.

Regarding `Cc1nn2c(=O)n(Cc3ccccc3)c(C(C(C)C)N(CCCN)C(=O)c3ccc(Br)cc3)nc2c1Cl` (racemic) [Example 8, N-(3-Amino-n-propyl)-N-[(RS)-1-(3-benzyl-8-chloro-7-methyl-4-oxo-3,4-dihydro-pyrazolo[1,5-a][1,3,5]triazin-2-yl)-2-methyl-n-propyl]-4-bromo-benzamide hydrochloride], the EC50 is no more than 100 nM.

As to `Cc1ccc(C(=O)N(CCCN)C(c2nc3c(Cl)c(OC(F)F)nn3c(=O)n2Cc2ccccc2)C(C)C)cc1` (racemic) [Example 17, N-(3-Amino-n-propyl)-N-{(RS)-1-[3-benzyl-8-chloro-7-(1,1-difluoro-methoxy)-4-oxo-3,4-dihydro-pyrazolo[1,5-a] [1,3,5]triazin-2-yl]-2-methyl-n-propyl}-4-methyl-benzamide hydrochloride], the EC50 was no more than 100 nM.

With `Cc1nn2c(=O)n(Cc3ccccc3)c(C(C(C)C)N(CCCN)C(=O)c3cccc(Cl)c3Cl)nc2c1Cl` (racemic) [Example 14, N-(3-Amino-n-propyl)-N-[(RS)-1-(3-benzyl-8-chloro-7-methyl-4-oxo-3,4-dihydro-pyrazolo[1,5-a][1,3,5]triazin-2-yl)-2-methyl-n-propyl]-2,3-dichloro-benzamide hydrochloride], the EC50 is 100 to 1000 nM.

Turning to `COc1cc2nc(C(C(C)C)N(CCCN)C(=O)c3ccc(C)cc3)n(Cc3ccccc3)c(=O)n2n1` (racemic) [Example 20, N-(3-Amino-n-propyl)-N-[(RS)-1-(3-benzyl-7-methoxy-4-oxo-3,4-dihydro-pyrazolo[1,5-a][1,3,5]triazin-2-yl)-2-methyl-n-propyl]-4-methyl-benzamide hydrochlorid], the EC50 was no more than 100 nM.

Staying with this experiment, now noted: RKO colon cancer cells, without Ponasterone A, 72 hours incubation, Alamar Blue.
In the case of `Cc1ccc(C(=O)N(CCCN(C)C)C(c2nc3c(Cl)c(C)nn3c(=O)n2Cc2ccccc2)C(C)C)cc1` (racemic) [Example 19, N-[(RS)-(3-Benzyl-8-chloro-7-methyl-4-oxo-3,4-dihydro-pyrazolo[1,5-a][1,3,5]triazin-2-yl)-methyl-n-propyl]-N-(3-dimethylamino-n-propyl)-4-methyl-benzamide], the “-log EC50 [mol/l] RKO p27 uninduced (proliferating)” value (“-log EC50 [mol/l] RKO p27 uninduced” for short) was “-log EC50 [mol/l] RKO p27 uninduced (proliferating) >= 7.0”.

As to `Cc1ccc(C(=O)N(CCCN)C(c2nc3c(Cl)c(C)nn3c(=O)n2Cc2ccccc2)C(C)C)c(F)c1.Cl` (racemic) [Example 12, N-(3-Amino-n-propyl)-N-[(RS)-1-(3-benzyl-8-chloro-7-methyl-4-oxo-3,4-dihydro-pyrazolo[1,5-a][1,3,5]triazin-2-yl)-2-methyl-n-propyl]-2-fluoro-4-methyl-benzamide hydrocloride], the “-log EC50 [mol/l] RKO p27 uninduced” value is “-log EC50 [mol/l] RKO p27 uninduced (proliferating) >= 7.0”.

In the case of `Cc1nn2c(=O)n(Cc3ccccc3)c(C(C(C)C)N(CCCN)C(=O)c3ccc(C(F)(F)F)cc3)nc2c1Cl.Cl` (racemic) [Example 9, N-(3-Amino-n-propyl)-N-[(RS)-1-(3-benzyl-8-chloro-7-methyl-4-oxo-3,4-dihydro-pyrazolo[1,5-a][1,3,5]triazin-2-yl)-2-methyl-n-propyl]-trifluoromethyl-benzamide hydrochloride], the “-log EC50 [mol/l] RKO p27 uninduced” value is “-log EC50 [mol/l] RKO p27 uninduced (proliferating) >= 7.0”.

Turning to `Cc1ccc(C(=O)N(CCCN)C(c2nc3c(Cl)c(C)nn3c(=O)n2Cc2ccccc2)C(C)C)cc1` (racemic) [Example 1a, N-(3-Amino-n-propyl)-N-[(RS)-1-(3-benzyl-8-chloro-7-methyl-4-oxo-3,4-dihydro-pyrazolo[1,5-a][1,3,5]triazin-2-yl)-2-methyl-n-propyl]-4-methyl-benzamide], the “-log EC50 [mol/l] RKO p27 uninduced” value is “-log EC50 [mol/l] RKO p27 uninduced (proliferating) >= 7.0”.

Turning to `Cc1ccc(C(=O)N(CCCN)C(c2nc3c(Cl)c(C)nn3c(=O)n2Cc2ccccc2)C(C)C)cc1F.Cl` (racemic) [Example 13, N-(3-Amino-n-propyl)-N-[(RS)-1-(3-benzyl-8-chloro-7-methyl-4-oxo-3,4-dihydro-pyrazolo[1,5-a][1,3,5]triazin-2-yl)-2-methyl-n-propyl]-3-fluoro-4-methyl-benzamide hydrocloride], the “-log EC50 [mol/l] RKO p27 uninduced” value was “-log EC50 [mol/l] RKO p27 uninduced (proliferating) >= 7.0”.
